Results as given in patent US5401647A, “Method of preparing Limulus amoebocyte lysate” (Seikagaku Kogyo Kabushiki Kaisha (Seikagaku Corporation), priority 1990, dated 1995).

Molecular target: T1, Limulus amoebocyte lysate factor G (Tachypleus tridentatus, UniProt Q27082)
T1 construct: Prepared from Japanese horseshoe crab, T. tridentatus; from tissue; host or cells: amoebocyte (hemocyte) lysate of the Japanese horseshoe crab T. tridentatus, factor G fraction
T1 sequence (Q27082 20-673): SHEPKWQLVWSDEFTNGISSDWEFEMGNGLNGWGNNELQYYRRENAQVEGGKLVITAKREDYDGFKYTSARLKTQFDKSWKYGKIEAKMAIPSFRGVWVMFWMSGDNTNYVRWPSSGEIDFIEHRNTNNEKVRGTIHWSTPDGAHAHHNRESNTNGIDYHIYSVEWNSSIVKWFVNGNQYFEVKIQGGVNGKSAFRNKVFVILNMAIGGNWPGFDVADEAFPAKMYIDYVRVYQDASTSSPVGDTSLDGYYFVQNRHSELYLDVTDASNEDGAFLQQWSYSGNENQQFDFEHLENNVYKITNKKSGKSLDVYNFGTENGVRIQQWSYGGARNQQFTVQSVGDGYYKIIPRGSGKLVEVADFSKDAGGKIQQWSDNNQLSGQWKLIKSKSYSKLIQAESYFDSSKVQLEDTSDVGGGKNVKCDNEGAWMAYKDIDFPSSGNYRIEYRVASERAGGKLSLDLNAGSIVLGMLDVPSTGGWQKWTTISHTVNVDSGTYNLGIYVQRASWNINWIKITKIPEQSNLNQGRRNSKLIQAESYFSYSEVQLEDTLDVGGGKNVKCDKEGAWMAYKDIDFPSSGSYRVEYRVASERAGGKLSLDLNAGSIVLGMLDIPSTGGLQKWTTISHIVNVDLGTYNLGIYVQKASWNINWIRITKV
T1 sequence (Q27083 32-309 partner): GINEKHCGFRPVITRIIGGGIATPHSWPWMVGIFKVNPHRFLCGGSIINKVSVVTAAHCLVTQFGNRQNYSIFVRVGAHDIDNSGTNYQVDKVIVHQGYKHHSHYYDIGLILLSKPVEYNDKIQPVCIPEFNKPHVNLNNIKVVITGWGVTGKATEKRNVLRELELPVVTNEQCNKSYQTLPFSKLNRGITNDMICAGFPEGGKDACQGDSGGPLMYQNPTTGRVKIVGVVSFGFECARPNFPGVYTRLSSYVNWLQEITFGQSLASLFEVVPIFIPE
Assay: Activation titer determination method of factor G activation inhibiting substance (GI)
Assay type: biochemical, T. tridentatus
Details: 10 pg GA (No. 106); 37° C., 30 minutes; GI amount causing 100% inhibition of factor G activation = 100 units
Procedure: The factor G activation inhibitory titer was measured according to the following activation titer determination method of factor G activation inhibiting substance and represented as units per mg. Activation titer determination method of factor G activation inhibiting substance (hereinafter, sometimes abbreviated as GI)
A 200 μl portion of a reaction mixture has the following composition. […]
After incubating the above-described reaction mixture at 37° C. for 30 minutes, 0.5 ml each of 0.04% sodium nitrite (0.48M HCl solution), 0.3% ammonium sulfamate and 0.07% N-1-naphthylethylenediamine dihydrochloride was added to the reaction mixture to effect coloration by diazo-coupling. The amount of released pNA was determined by measuring an absorbance at 545 nm (A545). GI activity was calculated according to the following equation; [formula]
Under these conditions, the GI amount which causes 100% inhibition of an activation of factor G by GA is defined as 100 units.
(Note 1) Water-insoluble samples are dissolved in 0.3M NaOH and neutralized with an equal volume of 0.3M HCl.
(Note 2) GPC fractionation-purified product of the curdian sonicated product prepared in the above-described Preparation Example 5 (Table-2, No. 106, molecular weight 216,000).
(Note 3) Prepared from Japanese horseshoe crab, T. tridentatus according to the article [T. Obayasi et al., Clin. Chim. Acta., 149, 55-65 (1985)].

Compound | Factor G Activation Inhibitory Titer
Partially methylated (1→3)-β-D-glucan [compound 43] | 93,300 unit/mg
Partially sulfated laminaran [compound 44] | 117,000 unit/mg
OC[C@H]1O[C@@H](O[C@H]2[C@H](O)[C@@H](CO)OC(O)[C@@H]2O)[C@H](O)[C@@H](O)[C@@H]1O (some centres unmarked) [compound 5, Laminaribiose] | 214 unit/mg
OC[C@H]1O[C@@H](O[C@@H]2[C@@H](O)[C@H](O[C@@H]3[C@@H](O)[C@H](O[C@@H]4[C@@H](O)[C@H](O[C@@H]5[C@@H](O)[C@H](O[C@@H]6[C@@H](O)[C@H](O[C@H]7[C@H](O)[C@@H](CO)OC(O)[C@@H]7O)O[C@H](CO)[C@H]6O)O[C@H](CO)[C@H]5O)O[C@H](CO)[C@H]4O)O[C@H](CO)[C@H]3O)O[C@H](CO)[C@H]2O)[C@H](O)[C@@H](O)[C@@H]1O (some centres unmarked) [compound 10, Laminariheptaose] | 103,000 unit/mg
OC[C@H]1O[C@@H](O[C@@H]2[C@@H](O)[C@H](O[C@@H]3[C@@H](O)[C@H](O[C@@H]4[C@@H](O)[C@H](O[C@H]5[C@H](O)[C@@H](CO)OC(O)[C@@H]5O)O[C@H](CO)[C@H]4O)O[C@H](CO)[C@H]3O)O[C@H](CO)[C@H]2O)[C@H](O)[C@@H](O)[C@@H]1O (some centres unmarked) [compound 8, Laminaripentaose] | 39,800 unit/mg
OC[C@H]1O[C@@H](O[C@@H]2[C@@H](O)[C@H](O[C@H]3[C@H](O)[C@@H](CO)OC(O)[C@@H]3O)O[C@H](CO)[C@H]2O)[C@H](O)[C@@H](O)[C@@H]1O (some centres unmarked) [compound 6, Laminaritriose] | 4,670 unit/mg
Partially carboxymethylated laminaran [compound 42] | 3,630,000 unit/mg
Partially carboxymethylated (1→3)-β-D-glucan (DS = 1.20) [compound 107] | < 100 unit/mg
Partially carboxymethylated (1→3)-β-D-glucan (DS = 0.03) GPC fraction 2 [compound 40] | 91,200 unit/mg
OC[C@H]1O[C@@H](O[C@@H]2[C@@H](O)[C@H](O[C@@H]3[C@@H](O)[C@H](O[C@@H]4[C@@H](O)[C@H](O[C@@H]5[C@@H](O)[C@H](O[C@H]6[C@H](O)[C@@H](CO)OC(O)[C@@H]6O)O[C@H](CO)[C@H]5O)O[C@H](CO)[C@H]4O)O[C@H](CO)[C@H]3O)O[C@H](CO)[C@H]2O)[C@H](O)[C@@H](O)[C@@H]1O (some centres unmarked) [compound 9, Laminarihexaose] | 55,000 unit/mg
OC[C@H]1O[C@@H](O[C@@H]2[C@@H](O)[C@H](O[C@@H]3[C@@H](O)[C@H](O[C@H]4[C@H](O)[C@@H](CO)OC(O)[C@@H]4O)O[C@H](CO)[C@H]3O)O[C@H](CO)[C@H]2O)[C@H](O)[C@@H](O)[C@@H]1O (some centres unmarked) [compound 7, Laminaritetraose] | 20,000 unit/mg
OC[C@H]1OC(O)[C@H](O)[C@@H](O)[C@@H]1O (some centres unmarked) [compound 108, Glucose] | < 100 unit/mg
Partially carboxymethylated (1→3)-β-D-glucan (DS = 0.03) GPC fraction 3 [Sample No. 41] | 80,000 unit/mg
Partially carboxymethylated (1→3)-β-D-glucan (DS = 0.03) GPC fraction 1 [compound 39] | 117,000 unit/mg
